Results taken from patent US20050256179A1, “Selective pharmacologic inhibition of protein trafficking and related methods of treating human diseases” (priority 2003, published 2005).

Experiments:
B16-F10 cells = experiment: PowerBlot screen of expression of over 950 proteins; type: cell-based, mouse; details: 100 ng/ml, 16 hr
Procedure: A second series of experiments tested the activity of AVP 893 on the expression of over 950 proteins by Western blotting in vitro (in triplicate); methods detailed below. B16 tumor cells were chosen for this screen and a 16 hour duration of AVP 893 treatment was selected to optimize the number of proteins that might be modified by drug. […] B16-F10 cells were cultured for 16 hr in the presence or absence of 100 ng/ml AVP 893. Samples were harvested and lysates prepared according to instructions supplied by Becton-Dickinson. Samples were placed on dry ice and submitted to the same for expression analysis of 950 proteins. […] Although both proteins have entirely different functions in the cell, and have not been linked (apparently) in the scientific literature, there is a rational explanation for the changes noted in each protein, as described below.

Mannosidase II = Mannosidase II immunocytochemistry; type: cell-based
Procedure: GS15, GS28, GPP130, and Mannosidase II, sparing the golgi structural protein GM-130 and having little effect on the Rab GTPase Rab6. Furthermore, these affects were most pronounced following overnight (16-20 hr) incubations with AVP 893, although some affects at early time points were seen. These conclusions were drawn from the western blot analysis (FIG. 29), as well as from the immunocytochemical studies (FIGS. 30-31).
Additional evidence that AVP 893 has unique activity against resident golgi proteins (e.g. Mannosidase II), was found using both shorter durations of drug exposure and immunocytochemistry instead of western blot analysis (FIG. 43).

[1] = system: viruses from families likely to utilize the golgi; experiment: In vitro testing of other viral families; type: cell-based; details: Table 4
Procedure: The effect of AVP 893 on the spread of viral infection was further investigated. AVP 893 (at 300 ng/ml) was applied 16 hr prior to virus inoculation. Time points shown in FIG. 45 represent the hours after virus inoculation. […] In addition to the immunocytochemistry work shown in FIG. 45, extensive in vitro plaque assays were performed on HSV-1 and -2, as well as other families of virus that use the golgi in their life cycle (see Table 2).
Representative viruses from families likely to utilize the golgi were tested. […] (data not shown).

GS28 mRNA = GS28 mRNA by RT-PCR in human PBL; type: cell-based; details: 3 to 16 hours following addition of drug
Procedure: Human buffy coats were purchased from the San Diego Blood Bank. Buffy Coat was purified of red blood cells using Histopaque-1077 following Sigma Diagnostic protocol. Lymphocytes (20 million) were then cultured in 75 cm2 flasks in cDMEM (+/−stimulus & AVP 893) for either 4 or 24 hrs. Cells were harvested and reconstituted in a Guanidine/Phenol solution essentially as described by Maniatis. The aqueous layer was removed and washed with Guanidine solution and finally 70% EtOH. RNA purity was checked by spectrophotometer. RT-PCR (36 cycles) was performed following the RT-PCR One-Step protocol (Qiagen). Similar results were obtained when testing mRNA samples obtained from other cell sources (not shown).

Rab1b = Rab1b expression by Western blotting; type: cell-based
Procedure: Protein samples (in sample buffer) were boiled for 1-3 minutes and put on ice. Same amount of protein were loaded on the NuPage gel (InVitrogen). After the electrophoresis was complete, proteins were transferred from the gel to a PVDF membrane using the electro-blotting apparatus from InVitrogen; the voltage was set to 25 for 2-3 hr. Block non-specific binding by incubating membrane with 5% milk (in PBS, 0.1% tween 20) for at least 30 min at room temperature or overnight at 4° C. The blocked membrane was incubated with primary antibody (See TABLE 2) diluted in 5% milk for 1 hour at room temperature. Optimal antibody dilution depends on the company, the amount of protein. Dilutions of 1:1000 were generally used for the primary antibodies from Santa Cruz. The membrane was washed with PBS, 0.1% tween 3-4 times 5 mins. The membrane was incubated for 30-60 minutes at room temperature with horseradish peroxidase (HRP) conjugated secondary antibody diluted in 5% milk. We usually used 1:4000 dilution for the secondary antibody from Santa Cruz. The membrane was washed 3-4 times with PBS, 0.1% tween, each time 15 minutes. The detection solutions A and B were mixed in a ratio 40:1 and Pipetted onto the membrane, and incubated for 5 min at RT. A sheet of Hyper film ECL was placed on the top of the membrane in the dark and exposed for 1 min, or adjust accordingly. […]

MOLT4 cells = experiment: Electron microscopic analysis of golgi structure; type: cell-based; details: 200 ng/mL, 2 hrs and 18 hrs
Procedure: Experiments were conducted to examine the golgi structure and morphology on the ultrastructural level following treatment with AVP 893. […] This finding was repeated with Vero cells, where AVP 893 was applied for 1 hr, 4 hrs, and 18 hrs, with the later two exposures resulting in disruption of cisternal structure (data not shown). We therefore conclude that AVP 893 disturbs the structure of the golgi cistemae within a few hours of treatment.

HSV-2 = HSV-2 plaque formation in Vero cells; type: cell-based
Procedure: An important potential consequence of blocking normal vesicle movement between the ER and golgi is the inhibition of viral protein maturation and intracellular propagation. Most viruses rely on the classical ER-to-golgi pathway for assimilating its proteins and, ultimately, infectivity. Brefeldin A causes the accumulation of viral proteins in the ER-golgi. The capacity of AVP 893 to inhibit viral propagation was tested in vitro by infecting Vero cells with HSV-2 and observing the effect of increasing concentrations of drug (FIG. 44). Vero cells (1 million/ml) were cultured overnight and inoculated with about 150 PFU of live type 2 Herpes Virus (HSV-2, ATCC) about 1 hour after addition of AVP 893. After 48 hours, media was removed and the cells washed with saline and stained with Biological Plaque Stain for 20 min. One ml of water was added and the liquid removed before quantifying virus by enumerating PFU.

GS15 = GS15 expression in 3T3 cells; type: cell-based; details: beginning around 2 to 4 hrs of exposure
Source text: Likewise, the non-resident golgi protein Rab6 appeared to be unaffected in some cell types, as illustrated in FIG. 31.

## O=C(Nc1ccc(-c2nc3cc(NC(=O)C4CCCCC4)ccc3[nH]2)cc1)C1CCCCC1 [AVP 893]
B16-F10 cells
  number of proteins consistently and significantly modified of over 950: 6
Mannosidase II; 1 hr of treatment, immunocytochemistry
  Mannosidase II staining pattern: no apparent effect
Mannosidase II; after 4 hrs of application
  Mannosidase II in golgi: little to no discernible amount of the enzyme remaining after 4 hrs
[1]
  spread of other viral families: inhibited
GS28 mRNA
  level of GS28 mRNA: did not affect the level of GS28 mRNA
Rab1b; 3T3 cells
  Rab1b expression: not affected in 3T3 cells
Rab1b; spleen cells
  Rab1b expression: suppressed in spleen cells
MOLT4 cells
  golgi structure by electron microscopy: no golgi cisternae were found
HSV-2; HSV-2, 48 hours
  plaque formation: suppressed plaque formation at all concentrations tested
HSV-2; about 150 PFU HSV-2, 48 hours
  concentration giving total block of plaque formation: 300 ng/mL
GS15
  GS15 staining: greatly diminished
